What was measured:
[1] = molecular target: Tyrosine-protein kinase JAK2 (Homo sapiens, UniProt O60674); experiment: (§1) JAK2 Inhibition Assay: Compounds of Formula I were screened for their ability to inhibit JAK2 using the general enzyme inhibition assay method, in which the assay mixture contained 1 mM ATP, 10 μM Omnia Y7 peptide (Catalog # IVGN KNZ3071C, Invitrogen Corporation, Carlsbad, Calif.) and 4 nM JAK2 in a total volume of 25 μL. JAK2 was purchased from Invitrogen Corporation, Carlsbad, Calif. (catalog # IVGN PV4288).
[2] = molecular target: Tyrosine-protein kinase JAK1 (Homo sapiens, UniProt P23458); experiment: as §1, with “JAK1” for “JAK2”, “8” for “10”, “Y12” for “Y7”, “KPZ3121C;” for “KNZ3071C,”, “12.5” for “4”, “PV4775).” for “PV4288).”
Tyrosine-protein kinase JAK1, sequence (P23458 whole entry): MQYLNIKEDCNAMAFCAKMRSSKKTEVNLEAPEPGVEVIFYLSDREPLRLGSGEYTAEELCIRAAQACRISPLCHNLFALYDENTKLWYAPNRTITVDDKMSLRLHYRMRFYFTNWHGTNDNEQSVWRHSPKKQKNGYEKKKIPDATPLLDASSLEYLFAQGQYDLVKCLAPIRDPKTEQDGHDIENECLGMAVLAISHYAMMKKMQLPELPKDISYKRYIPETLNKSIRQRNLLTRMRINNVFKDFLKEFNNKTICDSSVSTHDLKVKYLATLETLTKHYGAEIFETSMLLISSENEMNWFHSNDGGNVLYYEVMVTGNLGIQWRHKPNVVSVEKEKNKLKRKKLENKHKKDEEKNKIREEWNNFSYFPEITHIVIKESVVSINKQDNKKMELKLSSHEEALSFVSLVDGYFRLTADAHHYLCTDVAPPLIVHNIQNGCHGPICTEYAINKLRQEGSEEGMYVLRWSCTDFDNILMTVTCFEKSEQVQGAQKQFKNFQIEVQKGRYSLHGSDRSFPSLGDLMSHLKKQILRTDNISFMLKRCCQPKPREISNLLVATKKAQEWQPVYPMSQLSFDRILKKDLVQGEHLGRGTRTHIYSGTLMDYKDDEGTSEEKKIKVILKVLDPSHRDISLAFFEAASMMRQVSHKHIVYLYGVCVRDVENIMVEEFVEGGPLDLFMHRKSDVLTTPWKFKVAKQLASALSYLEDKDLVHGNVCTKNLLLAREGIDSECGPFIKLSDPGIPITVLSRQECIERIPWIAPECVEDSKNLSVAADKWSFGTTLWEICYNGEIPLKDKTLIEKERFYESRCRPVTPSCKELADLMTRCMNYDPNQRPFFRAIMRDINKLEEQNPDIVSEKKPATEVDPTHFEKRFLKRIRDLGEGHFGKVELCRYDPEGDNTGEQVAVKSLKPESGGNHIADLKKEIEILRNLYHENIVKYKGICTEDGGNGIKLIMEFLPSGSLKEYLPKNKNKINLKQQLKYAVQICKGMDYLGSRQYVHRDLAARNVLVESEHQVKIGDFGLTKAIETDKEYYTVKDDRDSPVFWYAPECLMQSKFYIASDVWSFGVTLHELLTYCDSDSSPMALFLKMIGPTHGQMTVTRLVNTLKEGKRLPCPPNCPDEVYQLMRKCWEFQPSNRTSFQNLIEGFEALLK

Tyrosine-protein kinase JAK2, sequence (O60674 whole entry): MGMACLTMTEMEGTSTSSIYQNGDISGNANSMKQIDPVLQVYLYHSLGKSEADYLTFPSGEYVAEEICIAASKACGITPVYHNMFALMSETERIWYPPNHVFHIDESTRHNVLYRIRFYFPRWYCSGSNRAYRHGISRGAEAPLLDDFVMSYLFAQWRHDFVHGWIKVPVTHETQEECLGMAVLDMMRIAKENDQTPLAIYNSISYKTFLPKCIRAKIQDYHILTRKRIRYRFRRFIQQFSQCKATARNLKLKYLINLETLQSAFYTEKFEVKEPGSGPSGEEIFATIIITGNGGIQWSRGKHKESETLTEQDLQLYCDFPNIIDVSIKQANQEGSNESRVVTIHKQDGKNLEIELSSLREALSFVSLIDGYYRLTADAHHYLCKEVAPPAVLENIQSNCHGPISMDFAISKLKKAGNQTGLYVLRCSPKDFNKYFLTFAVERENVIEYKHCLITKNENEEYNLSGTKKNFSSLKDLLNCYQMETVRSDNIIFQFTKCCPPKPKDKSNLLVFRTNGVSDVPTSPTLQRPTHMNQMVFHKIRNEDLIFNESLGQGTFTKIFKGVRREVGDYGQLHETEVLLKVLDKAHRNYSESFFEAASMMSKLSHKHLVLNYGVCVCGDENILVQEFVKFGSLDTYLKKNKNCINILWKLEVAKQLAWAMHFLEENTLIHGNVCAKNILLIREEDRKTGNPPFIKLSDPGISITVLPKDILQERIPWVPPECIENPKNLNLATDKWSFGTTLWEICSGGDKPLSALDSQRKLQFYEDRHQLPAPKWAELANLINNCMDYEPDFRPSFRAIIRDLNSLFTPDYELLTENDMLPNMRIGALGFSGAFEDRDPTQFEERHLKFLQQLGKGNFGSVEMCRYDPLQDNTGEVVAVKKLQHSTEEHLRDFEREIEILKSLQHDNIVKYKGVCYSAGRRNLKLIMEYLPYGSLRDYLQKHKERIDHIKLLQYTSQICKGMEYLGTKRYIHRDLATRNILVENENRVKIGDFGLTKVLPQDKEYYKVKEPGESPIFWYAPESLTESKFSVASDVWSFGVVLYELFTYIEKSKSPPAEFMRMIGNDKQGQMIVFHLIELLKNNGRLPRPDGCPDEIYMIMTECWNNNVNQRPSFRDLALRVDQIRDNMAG

Row | IC50 [1] | IC50 [2] | SMILES
1 | < 10 nM | – | CCC(CC)n1cc(-c2nc(-c3cnn([C@H]4C[C@@H](O)[C@@H](O)C4)c3)cn3nccc23)cn1
2 | – | in the range around 5500 nM | CCC(CC)n1cc(-c2nc(-c3cnn([C@H]4C[C@@](O)(CO)C4)c3)cn3nccc23)cn1
